The text below walks through data of patent publication US12304912B2, “Fused bicyclic RAF inhibitors and methods for use thereof” (Jazz Pharmaceuticals Ireland Limited, priority 2020, dated 2025).

Like-named read-outs stand apart in the source and are kept apart here.

In data set [1] the test system is BRAF monomers in A375 cells. As to the kind of experiment: A375 AlphaLISA SureFire pERK1/2 cellular assay (monomer). The class given is cell-based. The conditions noted are these: Homo sapiens, A-375; A375 cells, 1 hr; read-out: pERK A375 (1 hr) pIC50 (converted). As for the experimental part: (§1) The human HCT-116 colorectal carcinoma cell line (ATCC CCL-247) endogenously expresses the KRAS^G13D mutation, which leads to constitutive activation of the MAP kinase pathway and phosphorylation of ERK. […] Assay read outs took place 2 or 24 hours after dosing with compounds. On the first day, HCT-116 cells were harvested, resuspended in growth medium (McCoys5A with Glutamax (Life Technologies 36600021) and 10% heat-inactivated fetal bovine serum (Sigma F9665)), and counted. Cells were plated in 100 μl per well in each well of a 96-well culture dish (Sigma CLS3598) to a final density of 30,000 (2 hr read) or 15,000 (24 hr read) cells per well and incubated over night at 37° C. and 5% CO2. On day 2, the growth medium was exchanged for dosing medium (McCoys5A with Glutamax (Life Technologies 36600021) and 1% heat-inactivated fetal bovine serum (Sigma F9665)) and the cells were dosed with compounds to produce a 10-point dose response, where the top concentration was 1 μM and subsequent concentrations were at 1/3 log dilution intervals. A matched DMSO control was included. The cells were subsequently incubated for either 2 or 24 hours at 37° C. and 5% CO2. After incubation, media was removed and the cells were incubated with lysis buffer containing phosphatase inhibitors for 15 minutes at room temperature. Cell lysates were transferred to a 12 area 96 well white Optiplate™ (Perkin Elmer 6005569) and incubated with anti-mouse IgG acceptor beads, a biotinylated anti-ERK1/2 rabbit antibody recognizing both phosphorylated and non-phosphorylated ERK1/2, a mouse antibody targeted to the Thr202/Tyr204 epitope and recognizing phosphorylated ERK proteins only, and streptavidin-coated donor beads. The biotinylated antibody binds to the streptavidin-coated donor beads and the phopsho-ERK1/2 antibody binds to the acceptor beads. Plates were read on an EnVision reader (Perkin Elmer) and excitation of the beads at 680 nm with a laser induced the release of singlet oxygen molecules from the donor beads that trigger energy transfer to the acceptor beads in close proximity, producing a signal that can be measured at 570 nm. Both antibodies bound to phosphorylated ERK proteins, bringing the donor and acceptor beads into close proximity. All data were analyzed using the Dotmatics or GraphPad Prism software packages. Inhibition of ERK phosphorylation was assessed by determination of the absolute IC50 value, which is defined as the concentration of compound required to decrease the level of phosphorylated ERK proteins by 50% when compared to DMSO control.
A375 AlphaLISA SureFire pERK1/2 Cellular Assay (Monomer)
The human A375 melanoma cell line (ATCC CRL-1619) endogenously expresses the BRAF^V600E mutation, which leads to constitutive activation of the MAP kinase pathway and phosphorylation of ERK. In BRAF^V600E mutant tumours, BRAF signals as a monomer to activate ERK. To determine whether compounds can inhibit BRAF monomers in A375 cells, they were tested using AlphaLISA® SureFire® technology (Perkin Elmer p-ERK1/2 p-T202/Y204 assay kit ALSU-PERK-A10K). The main procedure is essentially the same as described above for HCT-116 cells, with the following adjustments: The A375 cells were cultivated and dosed in Dulbecco's modified Eagle's medium containing 4.5 g/L D-glucose (Sigma D6546), 10% heat-inactivated fetal bovine serum (Sigma F9665), and 1% Sodium-Pyruvate (Sigma S8636), and seeded with a seeding density of 30,000 cells per well. No media exchange was performed before dosing with compounds to produce a 10-point dose response, where the top concentration was 10 μM and subsequent concentrations were at 1/2 log dilution intervals. Subsequently, the cells were incubated for 1 hour at 37° C. and 5% CO2 before lysis.

The subject of data set [2] is RAF dimers in HCT-116 cells. As to the kind of experiment: HCT-116 AlphaLISA SureFire pERK1/2 cellular assay (dimer). It counts as cell-based. As to conditions: Homo sapiens, HCT-116, 1 hr. As for the experimental part: as §1
HCT-116 AlphaLISA SureFire pERK1/2 Cellular Assay (Dimer)
The human HCT-116 colorectal carcinoma cell line (ATCC CCL-247) endogenously expresses the KRAS^G13D mutation, which leads to constitutive activation of the MAP kinase pathway and phosphorylation of ERK. First generation RAF inhibitors can promote RAF dimer formation in KRAS mutant tumours leading to a paradoxical activation of the pathway. To determine whether compounds can circumvent this problem and inhibit RAF dimers in HCT-116 cells, they were tested using AlphaLISA® SureFire® technology (Perkin Elmer p-ERK1/2 p-T202/Y204 assay kit ALSU-PERK-A10K). The main procedure is essentially the same as described above, with the following adjustments: Cells were seeded with the seeding density of 30,000 cells per well. On the second day (the day of dosing) no medium change was performed and the cells were dosed with 1 μM of Encorafenib for 1 hour (at 37° C. and 5% CO2) to induce RAF dimers and promote paradoxical dimer-dependent pERK signalling. After incubation, the cells were washed, 100 μl fresh growth medium was added, and cells were dosed with compounds of interest to produce a 10-point dose response, where the top concentration was 10 μM and subsequent concentrations are at 1/2 log dilution intervals. Cells were incubated for another hour at 37° C. and 5% CO2 before lysis and processing with the pERK AlphaLISA® SureFire® kit as described above. […]

Data set [3] is described as follows: Microsomal stability assay, mouse liver microsomes (MLM). It counts as in vitro ADME. The conditions noted are these: 0.5 mg/mL protein, 1 μM substrate. As for the experimental part: (§2) Microsomal Stability Assay
(§3) The stability studies were performed manually using the substrate depletion approach. Test compounds were incubated at 37° C. with cryo-preserved mouse or human liver microsomes (Corning) at a protein concentration of 0.5 mg·mL^−1 and a final substrate concentration of 1 μM. Aliquots were removed from the incubation at defined timepoints and the reaction was terminated by adding to ice-cold organic solvent. Compound concentrations were determined by LC-MS/MS analysis. The natural log of the percentage of compound remaining was plotted against each time point and the slope determined. The half-life (t1/2) and CLint were calculated using Equations 1 and 2, respectively.
(§4) HLM (human liver microsomes) and MLM (mouse liver microsomes) stability assay results are described in Tables 1-2.

Data set [4] is described as follows: Microsomal stability assay, human liver microsomes (HLM). The class given is in vitro ADME. As to conditions: 0.5 mg/mL protein, 1 μM substrate. As for the experimental part:
as §2, §3, §4

Data set [5] in a line: Plasma protein binding assay, mouse plasma (mPPB). It counts as in vitro ADME. As to conditions: 5 μM. The procedure:
(§5) Plasma Protein Binding Assay The plasma protein binding was determined by the equilibrium dialysis method. A known concentration of compound (5 μM) in previously frozen human or mouse plasma (Sera Labs) was dialysed against phosphate buffer using a RED device (Life Technologies) for 4 hours at 37° C. The concentration of compound in the protein containing (PC) and protein free (PF) sides of the dialysis membrane were determined by LC-MS/MS and the % free compound was determined by equation 4. Data analysis was performed using Excel (Microsoft, USA). % free=(1−((PC−PF)/PC))×100 (4) hPPB (human plasma protein binding) and mPPB (mouse plasma protein binding) results are described in Tables 1-2.

The nature of data set [6]: Plasma protein binding assay, human plasma (hPPB). It counts as in vitro ADME. As to conditions: 5 μM. As for the experimental part: as §5
The subject of data set [7] is constitutive ERK phosphorylation in HCT-116 cells. As to the kind of experiment: HCT-116 AlphaLISA SureFire pERK1/2 cellular assay. As to conditions: Homo sapiens, HCT-116; HCT116 cells, 2 hr, Abs; read-out: pERK HCT116 (2 hr) Abs pIC50 (converted). The class given is cell-based, human. The procedure:
as §1, with “HCT-116” for “The human HCT-116”, “AlphaLISA SureFire pERK1/2 Cellular Assay […]” for “colorectal carcinoma cell line (ATCC CCL-247) endogenously expresses the KRAS^G13D mutation, which leads to constitutive activation of the MAP kinase pathway and phosphorylation of ERK.”, “Plates were read on an EnVision reader (Perkin Elmer) and excitation of the beads at 680 nm with a laser induced the release of singlet oxygen molecules from the donor beads that trigger energy transfer to the acceptor beads in close proximity, producing a signal that can be measured at 570 nm.” left out

Data set [8] is described as follows: FeSSIF solubility assay. The class given is physicochemical. As to conditions: fed state simulated intestinal fluid (FeSSIF), thermodynamic from solid, pH 5 acetate buffer, 37° C., read-out: FESSIF Sol. As for the experimental part:
FeSSIF Solubility Assay 1 mL of fed state simulated intestinal fluid (FeSSIF), prepared using FaSSIF/FeSSIF/FaSSGF powder (Biorelevant.com) and pH 5 acetate buffer, was added to 1.0 mg of compound and then incubated for 24 h (Bioshake iQ, 650 rpm, 37° C.). Following filtration under positive pressure, the concentration of compound in solution was assessed by LC-UV in comparison to the response for a calibration standard of known concentration (250 μM). FeSSIF solubility results are described in Tables 1-2.

Where [9] appears, read: HCT116 cells pre-dosed with 1 μM Encorafenib, read-out: pERK HCT116 dimer (1 hr) pIC50 (converted).
[10] abbreviates: equilibrium dialysis 4 hours 37° C.
Where [11] appears, read: equilibrium dialysis 4 hours at 37° C.

For `O=C1CCc2c(Oc3ccc4c(c3)CC(c3nc(-c5ccccc5F)c[nH]3)CO4)ccnc2N1` (centres unmarked) [Compound 3, 5-[3-[4-(2-fluorophenyl)-1H-imidazol-2-yl]chroman-6-yl]oxy-3,4-dihydro-1H-1,8-naphthyridin-2-one], the IC50 is 0.0437 µM in data set [1] and 0.112 µM in data set [2] (setting [9]). The microsomal CLint at 1 μM was determined as 34.4 µL/min/mg in data set [3] and 30.3 µL/min/mg in data set [4]. Besides, in data set [5] (setting [10]), the “mPPB (% free)” value came to 0.5 % free. For the same compound, the “hPPB (% free)” value in data set [6] (setting [10]) is listed as 0.2 % free.

For `COc1ncc(-c2c[nH]c(C3COc4ccc(Oc5ccnc6c5CCC(=O)N6)cc4C3)n2)c(OC)n1` (centres unmarked) [Compound 18, 5-[3-[4-(2,4-dimethoxypyrimidin-5-yl)-1H-imidazol-2-yl]chroman-6-yl]oxy-3,4-dihydro-1H-1,8-naphthyridin-2-one], the values for the IC50 in data set [1] and in data set [2] (setting [9]) were 10 µM and 3.63 µM, respectively. Also, the microsomal CLint at 1 μM in data set [3] came out at 32.9 µL/min/mg; in data set [4] it was 71.1 µL/min/mg. For the same compound, in data set [5] (setting [10]), the “mPPB (% free)” value was found to be 2.5 % free. In addition, the “hPPB (% free)” value in data set [6] (setting [10]) is recorded as 1.2 % free.

`CN1CCN(Cc2cc(C(F)(F)F)c3nc(C4COc5ccc(Oc6ccnc7c6CCC(=O)N7)cc5C4)[nH]c3c2)CC1` (centres unmarked) [Compound 28]: in data set [1], the IC50 was 1.82 µM. Moreover, the microsomal CLint at 1 μM in data set [3] is 31.1 µL/min/mg; in data set [4] it was 68.1 µL/min/mg. In addition, in data set [5] (setting [10]), the “mPPB (% free)” value turned out to be 0.5 % free. In addition, the “hPPB (% free)” value in data set [6] (setting [10]) stood at 0.1 % free.

On to `Cn1cc(-c2c[nH]c(C3COc4ccc(Oc5ccnc6c5CCC(=O)N6)cc4C3)n2)cn1` (centres unmarked) [Compound 108, 5-[3-[4-(1-methylpyrazol-4-yl)-1H-imidazol-2-yl]chroman-6-yl]oxy-3,4-dihydro-1H-1,8-naphthyridin-2-one], for which the IC50 in data set [1] was 6.31 µM; in data set [2] (HCT116 cells, dimer, read-out: pERK HCT116 dimer (1 hr) plC50 (converted)), 0.389 µM; in data set [7] it was greater than 1 µM.

Turning to `Cc1nn(C)cc1-c1c[nH]c(C2COc3ccc(Oc4ccnc5c4CCC(=O)N5)cc3C2)n1` (centres unmarked) [Compound 109, 5-[3-[4-(1,3-dimethylpyrazol-4-yl)-1H-imidazol-2-yl]chroman-6-yl]oxy-3,4-dihydro-1H-1,8-naphthyridin-2-one], the IC50 in data set [7] is greater than 1 µM. Besides, in data set [8], the solubility thermodynamic at 24 h was less than 1.1 µg/mL.

With `c1ccc(-c2c[nH]c(C3COc4ccc(Oc5ccnc(Nc6nccs6)c5)cc4C3)n2)cc1` (centres unmarked) [Compound 141], the microsomal CLint at 1 μM in data set [3] (37° C.) was 21.8 µL/min/mg; in data set [4] (37° C.), 1 µL/min/mg. Moreover, the “mPPB (% free)” value in data set [5] (setting [11]) is 0.5 % free. Moreover, in data set [6] (setting [11]), the “hPPB (% free)” value was less than 0.1 % free. Also, in data set [7], the IC50 was greater than 1 µM.

Turning to `O=C(NC1CC1)c1cc(Oc2ccc3c(c2)CC(c2nc(-c4ccccc4)c[nH]2)CO3)ccn1` (centres unmarked) [Compound 158, N-cyclopropyl-4-[3-(4-phenyl-1H-imidazol-2-yl)chroman-6-yl]oxy-pyridine-2-carboxamide], the microsomal CLint at 1 μM is 62.8 µL/min/mg in data set [3] (37° C.) and 21.3 µL/min/mg in data set [4] (37° C.). The “mPPB (% free)” value in data set [5] (setting [11]) was found to be 0.2 % free. Besides, the “hPPB (% free)” value in data set [6] (setting [11]) is reported as 0.3 % free. Further, in data set [7], the IC50 was 0.741 µM.
